In PubChem BioAssay (NCI):
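Cells were grown in 96-well plates and exposed to each compound for 48 hours at five concentrations; endpoints were interpolated linearly between bracketing concentrations, or set to the highest concentration if not reached. GI50 marks 50% less growth. TGI denotes the concentration required for complete inhibition of growth.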

tested on: NCI-H460 lung; test: growth of human tumour cells (NCI), 48 h

SMILES	TGI	GI50
O=C(O)Cc1cc(Cl)ccc1O	> 100 µM	
COc1ccc(C(=O)/C=C/c2cc(-c3cc(OC)c(OC)c(OC)c3)n[nH]2)cc1OC	3.33 µM	1.41 µM
COc1c(OC[C@H](O)CN2CCOCC2)ccc2c3n(c(=NC(=O)c4cccnc4C)nc12)CCN3	> 50 µM	0.528 µM
COc1ccc(-c2nc3ccc(-c4nc5ccc(N6CCN(c7ccccc7)CC6)cc5[nH]4)cc3[nH]2)cc1OC	3.66 µM	1.73 µM
O=C1/C(=C/c2cccc(Cl)c2Cl)N=C(c2ccccc2)N1C1CC1	> 50 µM	15.3 µM
COc1ccc(Nc2nnc(-c3cc(O)ccc3O)s2)cc1	> 50 µM	40.4 µM
Cn1cc(-c2csc(-c3c[nH]c4ccc(F)cc34)n2)c2cnccc21	3.95 µM	1.99 µM
CNCC#Cc1c(F)ccc2c1/C(=C/c1[nH]ccc1OC)C(=O)N2	2.44 µM	0.124 µM
Cn1cc(C2=C(c3cn(CCCCO)c4ccccc34)C(=O)NC2=O)c2ccccc21	> 25 µM	8.41 µM

tested on: HL-60(TB) leukemia; test: growth of human tumour cells (NCI), 48 h

SMILES	TGI	GI50
O=C(O)Cc1cc(Cl)ccc1O	> 100 µM	
Cc1nn(-c2ccc(Cl)cc2)c2nc3c(nc12)C(=O)c1ccccc1-3	> 100 µM	> 100 µM
COc1ccc(C(=O)/C=C/c2cc(-c3cc(OC)c(OC)c(OC)c3)n[nH]2)cc1OC	4.18 µM	1.44 µM
COc1c(OC[C@H](O)CN2CCOCC2)ccc2c3n(c(=NC(=O)c4cccnc4C)nc12)CCN3	> 50 µM	0.0538 µM
COc1ccc(-c2nc3ccc(-c4nc5ccc(N6CCN(c7ccccc7)CC6)cc5[nH]4)cc3[nH]2)cc1OC	10.2 µM	1.78 µM
O=C1/C(=C/c2cccc(Cl)c2Cl)N=C(c2ccccc2)N1C1CC1	41.4 µM	15.6 µM
COc1cc2c(c(OC)c1OC)-c1ccc(SC)c(=O)cc1C(NC=O)CC2 (stereo not drawn)	0.0492 µM	
COc1ccc(Nc2nnc(-c3cc(O)ccc3O)s2)cc1	> 50 µM	4.57 µM
Cn1cc(-c2csc(-c3c[nH]c4ccc(F)cc34)n2)c2cnccc21	4.32 µM	2.19 µM
CNCC#Cc1c(F)ccc2c1/C(=C/c1[nH]ccc1OC)C(=O)N2	0.26 µM	0.0722 µM
Cn1cc(C2=C(c3cn(CCCCO)c4ccccc34)C(=O)NC2=O)c2ccccc21	16.3 µM	6.71 µM

tested on: SNB-19 CNS; test: growth of human tumour cells (NCI), 48 h

SMILES	TGI	GI50
O=C(O)Cc1cc(Cl)ccc1O	> 100 µM	
Cc1nn(-c2ccc(Cl)cc2)c2nc3c(nc12)C(=O)c1ccccc1-3	> 100 µM	> 100 µM
COc1ccc(C(=O)/C=C/c2cc(-c3cc(OC)c(OC)c(OC)c3)n[nH]2)cc1OC	3.01 µM	1.42 µM
COc1c(OC[C@H](O)CN2CCOCC2)ccc2c3n(c(=NC(=O)c4cccnc4C)nc12)CCN3	> 50 µM	5.1 µM
COc1ccc(-c2nc3ccc(-c4nc5ccc(N6CCN(c7ccccc7)CC6)cc5[nH]4)cc3[nH]2)cc1OC	3.59 µM	1.93 µM
O=C1/C(=C/c2cccc(Cl)c2Cl)N=C(c2ccccc2)N1C1CC1	33.2 µM	12.7 µM
COc1cc2c(c(OC)c1OC)-c1ccc(SC)c(=O)cc1C(NC=O)CC2 (stereo not drawn)	> 100 µM	
COc1ccc(Nc2nnc(-c3cc(O)ccc3O)s2)cc1	> 50 µM	> 50 µM
Cn1cc(-c2csc(-c3c[nH]c4ccc(F)cc34)n2)c2cnccc21	3.52 µM	1.95 µM
CNCC#Cc1c(F)ccc2c1/C(=C/c1[nH]ccc1OC)C(=O)N2	2.89 µM	0.621 µM
Cn1cc(C2=C(c3cn(CCCCO)c4ccccc34)C(=O)NC2=O)c2ccccc21	> 25 µM	14.7 µM

tested on: SK-OV-3 ovarian; test: growth of human tumour cells (NCI), 48 h

SMILES	TGI	GI50
O=C(O)Cc1cc(Cl)ccc1O	> 100 µM	
Cc1nn(-c2ccc(Cl)cc2)c2nc3c(nc12)C(=O)c1ccccc1-3	> 100 µM	47.3 µM
COc1ccc(C(=O)/C=C/c2cc(-c3cc(OC)c(OC)c(OC)c3)n[nH]2)cc1OC	7.83 µM	2.79 µM
COc1c(OC[C@H](O)CN2CCOCC2)ccc2c3n(c(=NC(=O)c4cccnc4C)nc12)CCN3	2.27 µM	0.115 µM
COc1ccc(-c2nc3ccc(-c4nc5ccc(N6CCN(c7ccccc7)CC6)cc5[nH]4)cc3[nH]2)cc1OC	18.6 µM	5.34 µM
COc1cc2c(c(OC)c1OC)-c1ccc(SC)c(=O)cc1C(NC=O)CC2 (stereo not drawn)	63.9 µM	
Cn1cc(-c2csc(-c3c[nH]c4ccc(F)cc34)n2)c2cnccc21	3.16 µM	1.73 µM
CNCC#Cc1c(F)ccc2c1/C(=C/c1[nH]ccc1OC)C(=O)N2	3.52 µM	0.104 µM
Cn1cc(C2=C(c3cn(CCCCO)c4ccccc34)C(=O)NC2=O)c2ccccc21	> 25 µM	8.23 µM

tested on: RXF 393 renal; test: growth of human tumour cells (NCI), 48 h

SMILES	TGI	GI50
O=C(O)Cc1cc(Cl)ccc1O	> 100 µM	
Cc1nn(-c2ccc(Cl)cc2)c2nc3c(nc12)C(=O)c1ccccc1-3	> 100 µM	> 100 µM
COc1ccc(C(=O)/C=C/c2cc(-c3cc(OC)c(OC)c(OC)c3)n[nH]2)cc1OC	2.66 µM	1.35 µM
COc1c(OC[C@H](O)CN2CCOCC2)ccc2c3n(c(=NC(=O)c4cccnc4C)nc12)CCN3	2.38 µM	0.192 µM
COc1ccc(-c2nc3ccc(-c4nc5ccc(N6CCN(c7ccccc7)CC6)cc5[nH]4)cc3[nH]2)cc1OC	3.41 µM	1.59 µM
O=C1/C(=C/c2cccc(Cl)c2Cl)N=C(c2ccccc2)N1C1CC1	> 50 µM	23.9 µM
COc1cc2c(c(OC)c1OC)-c1ccc(SC)c(=O)cc1C(NC=O)CC2 (stereo not drawn)	> 67.9 µM	
COc1ccc(Nc2nnc(-c3cc(O)ccc3O)s2)cc1	> 50 µM	30.6 µM
Cn1cc(-c2csc(-c3c[nH]c4ccc(F)cc34)n2)c2cnccc21	3.25 µM	1.78 µM
CNCC#Cc1c(F)ccc2c1/C(=C/c1[nH]ccc1OC)C(=O)N2	0.147 µM	0.0454 µM
Cn1cc(C2=C(c3cn(CCCCO)c4ccccc34)C(=O)NC2=O)c2ccccc21	10.8 µM	3.92 µM
